Assay results from patent US20240108601A1, “TREATMENT OF MENTAL DISORDERS” (GH Research Ireland Limited, priority 2022, published 2024).
“And” between values parts separate entries of the source, which are not always exact repeats. Equal values may be shown once.

Test system: patients with treatment-resistant major depressive disorder (TRD)
Assay: Phase 1/2 clinical trial of inhaled 5-MeO-DMT in treatment-resistant depression
Details: for MADRS Concentration Difficulties % improvement / MADRS Concentration Difficulties improvement / MADRS Inability to Feel % improvement / MADRS Inability to Feel improvement / MADRS Inner Tension % improvement / MADRS Inner Tension improvement / MADRS Lassitude % improvement / MADRS Lassitude improvement / MADRS Pessimistic Thoughts % improvement / MADRS Pessimistic Thoughts improvement / MADRS Suicidal Thoughts % improvement / MADRS Suicidal Thoughts improvement / MADRS Suicidal Thoughts aggregated score / MADRS Inner Tension aggregated score / MADRS Lassitude aggregated score / MADRS Pessimistic Thoughts aggregated score / MADRS Concentration Difficulties aggregated score / MADRS Inability to Feel aggregated score / BPRS Anxiety % improvement / BPRS Anxiety improvement / BPRS Blunted Affect % improvement / BPRS Blunted Affect improvement / BPRS Emotional Withdrawal % improvement / BPRS Emotional Withdrawal improvement / BPRS Guilt Feelings % improvement / BPRS Guilt Feelings improvement / BPRS Tension % improvement / BPRS Tension improvement / BPRS Emotional Withdrawal aggregated score / BPRS Blunted Affect aggregated score / BPRS Tension aggregated score / BPRS Guilt Feelings aggregated score / BPRS Anxiety aggregated score / MADRS Reduced Sleep % improvement / MADRS Reduced Sleep improvement / MADRS Reduced Sleep aggregated score: IDR n=8; for MADRS Suicidal Thoughts aggregated score: baseline 11; for MADRS Inner Tension aggregated score: baseline 26; for MADRS Lassitude aggregated score: baseline 27; for MADRS Pessimistic Thoughts aggregated score: baseline 28; for MADRS Concentration Difficulties aggregated score: baseline 30; for MADRS Inability to Feel aggregated score: baseline 36; for BPRS Emotional Withdrawal aggregated score: baseline 13; for BPRS Blunted Affect aggregated score: baseline 15; for BPRS Tension aggregated score: baseline 16; for BPRS Guilt Feelings aggregated score: baseline 34; for BPRS Anxiety aggregated score: baseline 37; for MADRS Reduced Sleep aggregated score: baseline 25
Experimental: Patients were assigned to different groups. In the context of the present invention, the group who received a single, 12 mg dose and the group who underwent an intra-day individualized dosing regimen (IDR) that allowed for multiple, escalating doses (6 mg, 12 mg and 18 mg) within a single day, driven by the intensity of the patient-reported psychedelic experience are of interest.
The data gathered include the assessment of the treated patients against several scales including the Montgomery Åsberg Depression Rating Scale (MADRS) and the Brief Psychiatric Rating Scale (BPRS).
This trial was designed in two parts. Part A was an open-label, single-arm, single-dose Phase 1 trial with two dose levels (12 mg (n=4) and 18 mg (n=4)). […] The primary endpoint of Part B was to assess the effects on the severity of depression, as assessed by the proportion of patients in remission on day seven after dosing, defined as a MADRS total score of less than or equal to 10.

COc1ccc2[nH]cc(CCN(C)C)c2c1 [5-MeO-DMT]
MADRS Concentration Difficulties % improvement (2 h): 63% and 63.33% | MADRS Concentration Difficulties improvement (2 h): 19 points | MADRS Inability to Feel % improvement (2 h): 67% and 66.67% | MADRS Inability to Feel improvement (2 h): 24 points | MADRS Inner Tension % improvement (2 h): 58% and 57.69% | MADRS Inner Tension improvement (2 h): 15 points | MADRS Lassitude % improvement (2 h): 63% and 62.96% | MADRS Lassitude improvement (2 h): 17 points | MADRS Pessimistic Thoughts % improvement (2 h): 75% | MADRS Pessimistic Thoughts improvement (2 h): 21 points | MADRS Suicidal Thoughts % improvement (2 h): 73% and 72.72% | MADRS Suicidal Thoughts improvement (2 h): 8 points | MADRS Suicidal Thoughts aggregated score (2 h): 3 | MADRS Inner Tension aggregated score (2 h): 11 | MADRS Lassitude aggregated score (2 h): 10 | MADRS Pessimistic Thoughts aggregated score (2 h): 7 | MADRS Concentration Difficulties aggregated score (2 h): 11 | MADRS Inability to Feel aggregated score (2 h): 12 | BPRS Anxiety % improvement (3 h): 49% and 48.65% | BPRS Anxiety improvement (3 h): 18 points | BPRS Blunted Affect % improvement (3 h): 27% and 26.67% | BPRS Blunted Affect improvement (3 h): 4 points | BPRS Emotional Withdrawal % improvement (3 h): 38% and 38.46% | BPRS Emotional Withdrawal improvement (3 h): 5 points | BPRS Guilt Feelings % improvement (3 h): 59% and 58.82% | BPRS Guilt Feelings improvement (3 h): 20 points | BPRS Tension % improvement (3 h): 31% and 31.25% | BPRS Tension improvement (3 h): 5 points | BPRS Emotional Withdrawal aggregated score (3 h): 8 | BPRS Blunted Affect aggregated score (3 h): 11 | BPRS Tension aggregated score (3 h): 11 | BPRS Guilt Feelings aggregated score (3 h): 14 | BPRS Anxiety aggregated score (3 h): 19 | BPRS Anxiety % improvement (day 1): 57% and 56.76% | BPRS Anxiety improvement (day 1): 21 points | BPRS Blunted Affect % improvement (day 1): 47% and 46.67% | BPRS Blunted Affect improvement (day 1): 7 points | BPRS Emotional Withdrawal % improvement (day 1): 38% and 38.46% | BPRS Emotional Withdrawal improvement (day 1): 5 points | BPRS Guilt Feelings % improvement (day 1): 68% and 67.65% | BPRS Guilt Feelings improvement (day 1): 23 points | BPRS Tension % improvement (day 1): 31% and 31.25% | BPRS Tension improvement (day 1): 5 points | MADRS Concentration Difficulties % improvement (day 1): 97% and 96.67% | MADRS Concentration Difficulties improvement (day 1): 29 points | MADRS Inability to Feel % improvement (day 1): 94% and 94.44% | MADRS Inability to Feel improvement (day 1): 34 points | MADRS Inner Tension % improvement (day 1): 77% and 76.92% | MADRS Inner Tension improvement (day 1): 20 points | MADRS Lassitude % improvement (day 1): 81% and 81.48% | MADRS Lassitude improvement (day 1): 22 points | MADRS Pessimistic Thoughts % improvement (day 1): 86% and 85.71% | MADRS Pessimistic Thoughts improvement (day 1): 24 points | MADRS Reduced Sleep % improvement (day 1): 52% | MADRS Reduced Sleep improvement (day 1): 13 points | MADRS Suicidal Thoughts % improvement (day 1): 91% and 90.91% | MADRS Suicidal Thoughts improvement (day 1): 10 points | MADRS Suicidal Thoughts aggregated score (day 1): 1 | BPRS Emotional Withdrawal aggregated score (day 1): 8 | BPRS Blunted Affect aggregated score (day 1): 8 | BPRS Tension aggregated score (day 1): 11 | MADRS Reduced Sleep aggregated score (day 1): 12 | MADRS Inner Tension aggregated score (day 1): 6 | MADRS Lassitude aggregated score (day 1): 5 | MADRS Pessimistic Thoughts aggregated score (day 1): 4 | MADRS Concentration Difficulties aggregated score (day 1): 1 | BPRS Guilt Feelings aggregated score (day 1): 11 | MADRS Inability to Feel aggregated score (day 1): 2 | BPRS Anxiety aggregated score (day 1): 16 | BPRS Anxiety % improvement (day 7): 54% and 54.05% | BPRS Anxiety improvement (day 7): 20 points | BPRS Blunted Affect % improvement (day 7): 47% and 46.67% | BPRS Blunted Affect improvement (day 7): 7 points | BPRS Emotional Withdrawal % improvement (day 7): 38% and 38.46% | BPRS Emotional Withdrawal improvement (day 7): 5 points | BPRS Guilt Feelings % improvement (day 7): 71% and 70.59% | BPRS Guilt Feelings improvement (day 7): 24 points | BPRS Tension % improvement (day 7): 38% and 37.50% | BPRS Tension improvement (day 7): 6 points | MADRS Concentration Difficulties % improvement (day 7): 70% | MADRS Concentration Difficulties improvement (day 7): 21 points | MADRS Inability to Feel % improvement (day 7): 83% and 83.33% | MADRS Inability to Feel improvement (day 7): 30 points | MADRS Inner Tension % improvement (day 7): 54% and 53.85% | MADRS Inner Tension improvement (day 7): 14 points | MADRS Lassitude % improvement (day 7): 89% and 88.89% | MADRS Lassitude improvement (day 7): 24 points | MADRS Pessimistic Thoughts % improvement (day 7): 89% and 89.29% | MADRS Pessimistic Thoughts improvement (day 7): 25 points | MADRS Reduced Sleep % improvement (day 7): 64% | MADRS Reduced Sleep improvement (day 7): 16 points | MADRS Suicidal Thoughts % improvement (day 7): 73% and 72.73% | MADRS Suicidal Thoughts improvement (day 7): 8 points | MADRS Suicidal Thoughts aggregated score (day 7): 3 | BPRS Emotional Withdrawal aggregated score (day 7): 8 | BPRS Blunted Affect aggregated score (day 7): 8 | BPRS Tension aggregated score (day 7): 10 | MADRS Reduced Sleep aggregated score (day 7): 9 | MADRS Inner Tension aggregated score (day 7): 12 | MADRS Lassitude aggregated score (day 7): 3 | MADRS Pessimistic Thoughts aggregated score (day 7): 3 | MADRS Concentration Difficulties aggregated score (day 7): 9 | BPRS Guilt Feelings aggregated score (day 7): 10 | MADRS Inability to Feel aggregated score (day 7): 6 | BPRS Anxiety aggregated score (day 7): 17 | Patients maintaining remission (IDR, Day 7): 7/8 | Patients achieving remission (IDR, day 1): 8/8 | Patients achieving remission (IDR, within 2h after dosing): 5/8 | SAEs (Part A): No SAEs were reported | Changes in safety laboratory analyses, vital signs, psychiatric safety assessments, cognitive function (Part A and Part B): No clinically significant changes | Patients with at least one ADR (Part A, both groups (12 mg and 18 mg), all mild, resolved spontaneously): 3 of 4 | SAEs (Part B): No SAEs were reported | Patients with at least one ADR (Part B IDR n=8, all resolved spontaneously): 87.5% | Hypomania induction (TRD patients): no evidence of hypomania induction
